# What was measured:
# HRV2 [1] = test: Cell Titer 96 cell proliferation assay, viability of HRV2-infected HeLa cells; assay type: cell-based, human rhinovirus; details: for viability of infected cells: HeLa cells, HRV2 20 TCID50/cell, 24 hours after infection, even slight concentrations; for protective effect during viral proliferation: determined as described in Example 3, HRV2-infected HeLa cells
# From the text: A cell proliferation assay was done to test the effect of PDTC or DDTC on the viability of the cells during a viral infection.
# mengovirus virions = details: Calvert, Interferon Research 1990; cited from earlier work
# HeLa cells = test: Cell proliferation assay on uninfected HeLa cells (toxicity control); details: for toxicity of the concentration used to inhibit the viral infections: HeLa cells; for effects on uninfected cells (viability): compound alone, uninfected HeLa cells
# HRV2 [2] = test: Crystal violet staining of cell lawn of HRV2-infected HeLa cells; assay type: cell-based, human rhinovirus; details: HRV2 100 TCID50 per cell, compound added 1 hour after infection, stained after 24 hours
# respiratory RNA viruses = test: Action of antioxidants against respiratory RNA viruses (summary statement); assay type: cell-based
# influenza virus [3] = details: Knobil et al., Am. J. Physiol. 1998; cited from earlier work
# [4] = tested on: HRV serotypes 1A, 2, 14 and 16; test: Virus progeny titer (TCID50 test) in supernatants of HRV-infected HeLa cells; assay type: cell-based, human rhinovirus; details: 20 TCID50 per cell, PDTC 125 μm
# Experimental: PDTC was added after infection of cells with various HRV serotypes to test the effectiveness during infections by HRV. HeLa cells were infected with HRV serotypes 1A, 2, 14 and 16 with 20 TCID50 (tissue culture infectious dose 50) per cell. PDTC was added at the same time to a concentration of 125 μm in the medium. Excess virus was removed 4 hours after infection, while PDTC was added to the fresh medium. 24 hours (FIG. 1, top) and 48 hours (FIG. 1, bottom) after the infection (p. I.), the supernatants were collected and the amount of virus progeny was determined by TCID50 tests. Treatment of cells with PDTC reduced the virus titer (vt) by 10^3 after 24 hours (FIG. 1, top).
# [5] = tested on: HRV2, HRV14, HRV1A and HRV16; test: HRV-induced cytopathic effects (morphology) in HeLa cells; assay type: cell-based, human rhinovirus
# Experimental: Morphological changes in the cells, called “cytopathic effects” (CPE) occur in the late stages of a rhinoviral infection. These HRV induced CPE are characterized as cell rounding, shrinkage, deformation of the nucleus and chromatin condensation. When HeLa cells are infected with HRV2, HRV14, HRV1A and HRV16 at 100 TCID50 per cell, a distinct cytopathic effect is visible after 8 hours post-infection.
# [6] = tested on: HRC serotypes 1A, 2, 14 and 16; test: Time of addition, proliferation assay of HRV-infected cells; assay type: cell-based, human rhinovirus; details: PDTC 125 μM, 20 TCID50 per cell
# Experimental: To determine the stage of the viral life cycle attacked by PDTC, PDTC was added at various times following virus infection with 20 TCID50 per cell, and proliferation assays were done. […] This effect is also not specific for a single serotype, as HRC serotypes 1A, 2, 14 and 16 were used. Only PDTC treatment (125 μM) of the cells more than 8 hours after infection reduced the protective effect.
# HRV2 [7] = test: Time of addition, viral titers in supernatants of HRV2-infected cells; assay type: cell-based, human rhinovirus
# Experimental: Similar results were obtained if the viral titers (vt) were determined in the supernatants of infected and PDTC-treated cells (see FIG. 4B). Addition of PDTC up to four hours after infection reduced the titer of the HRV2 produced by 10^3.
# eIF4GI = test: Western blot of eIF4GI splitting by viral 2A protease in HRV2-infected HeLa cells; assay type: cell-based, human rhinovirus; details: HRV2 100 TCID50 per cell
# Experimental: Various proteolytic activities were determined to examine the course of a rhinoviral infection in the presence and absence of PDTC. Enzymatic splitting of the cellular translation initiation factors 4GI (eIF4GI) and 4GII by viral 2A protease, ending host cell protein synthesis, is one characteristic proteolytic activity that occurs in the course of infection with rhinoviruses and enteroviruses. Depending on the HRV serotype, eIF4G proteins are split in an early stage of infection. Another splitting activity during a rhinoviral infection, only recently described, is splitting of the intermediary filament protein cytokeratin 8. This splitting also depends on the 2A protease, but occurs at a later stage of the infection. In order to investigate the effect of a PDTC treatment on the course of a virus infection, a Western blot analysis was done to analyze these 2A protease substrates.
# Medium was removed at the indicated times for the Western blot analysis. The cells were lysed by adding 100 μl of protein buffer (8% sodium dodecyl sulfate, 20% β-mercapto-ethanol, 20% glycerol, 0.04% bromphenol blue). 20 μl protein extract was separated by SDS-PAGE on each track, and blotted onto PVDF membranes. […] The molecular weights were determined by using a prestained SDS-7B marker (Sigma).
# Splitting of eIF4GI can be detected 4 hours after infection in HeLa cells infected with HRV2 (100 TCID50 per cell). […]
# [8] = tested on: rhinoviral proteins VP1, VP2 and VP3; test: Western blot of HRV2 capsid proteins in infected HeLa cells; assay type: cell-based, human rhinovirus; details: HRV2 100 TCID50 per cell
# From the text: To determine the effect of PDTC on the expression of viral proteins, capsid proteins of HRV2 were detected by Western blot analysis in protein extracts from HRV2-infected HeLa cells (100 TCID50 per cell) (see FIG. 6). The Western blot analysis was done as described above in Example 5, with use of a polyclonal rabbit antiserum against HRV2. Significant amounts of the rhinoviral proteins VP1, VP2 and VP3 were detected in untreated cells six hours after infection.
# A/PR8/34 = test: microbe, parasite or virus in culture; assay type: cell-based, influenza A virus; details: 4 days
# A/Vienna/47/96 = test: microbe, parasite or virus in culture; assay type: cell-based, influenza A virus; details: 4 days
# [9] = tested on: influenza A/PR8/34 and influenza A/Vienna/47/96; test: microbe, parasite or virus in culture; assay type: cell-based, influenza A virus
# influenza virus [10] = test: Mice inoculated intranasally with lethal dose of influenza virus, intranasal treatment; assay type: in vivo, C57/BL6 mice; details: 25 μl 600 mM PDTC intranasally
# Experimental: Ten C57/BL6 mice were inoculated intranasally with a lethal dose (50 μl 10^7 pfU). One hour later, they were treated intranasally with 25 μl 600 mM PDTC or with 25 μl PBS. The mice were examined and treated every 12 hours for the first 48 hours and then every 24 hours. The weights of the mice were determined and reported in % of the initial weight (% w) (FIG. 11A). […] All the mice treated with PBS (diamonds) died within 12 days after the infection (% s=% surviving).
# [11] = tested on: equine rhinitis A virus (ERAV); assay type: cell-based; details: vero cells, 10 TCID50 ERAV per cell, PDTC 1 mM-50 μM, 24 hours after infection
# Experimental: The reduction of ERAV viral propagation by addition of PDTC was investigated as follows: vero cells were infected with 10 TCID50 ERAV per cell. At the same time, PDTC was added at different concentrations (1 mM-50 μM). The inoculum was removed 4 hours after infection, and fresh medium with PDTC was added. The supernatants were removed 24 hours after the infection, and the viral titers were determined in a standard plate assay.
# FMV virus O-Manisa [12] = test: microbe, parasite or virus in culture; assay type: cell-based, foot and mouth disease virus
# FMV virus O-Manisa [13] = assay type: cell-based, foot and mouth disease virus; details: IB-RS-2 cells, 0.001 TCID50 per cell, PDTC up to 200 μM, 24 hours after infection
# FSME virus (Neudörfel) = test: FSME virus proliferation in suspended cells; assay type: cell-based; details: same concentrations, 0.975 to 1000 μM
# Experimental: Similarly, we investigated whether PDTC can affect virus proliferation in suspended cells. The same concentrations as above were tested.
# EMC virus = test: Mice infected intraperitoneally with EMC virus, intraperitoneal treatment; assay type: in vivo, C57B16 mice; details: 50 μl of 50 mM PDTC per day i.p.
# Experimental: C57B16 mice were infected intraperitoneally with 10 TCID50 of EMC virus. Then, the control group was treated intraperitoneally once daily with PBS. Two other groups were treated with 50 μl of 50 mM PDTC per day. Treatment of one group (PDTC) was started simultaneously with the infection, while treatment of the other group (PDTC 24 hpi) was started only 24 hours after the infection.
# BHK-21 cells = details: PDTC 0.975 to 1000 μM, 4 days at 37° C.
# [14] = tested on: human immunodeficiency virus; details: asymptomatic and minimally symptomatic HIV patients, HIV87 Study Group 1993; cited from earlier work
compound,measurement,setting,value
"CCN(CC)C(=S)S [DDTC, N, N-diethyldithiocarbamate]",viability of infected cells,HRV2 [1],significantly increased
same,action on mengovirus virions,mengovirus virions,inactivates mengovirus virions
same,toxicity of the concentration used to inhibit the viral infections,HeLa cells,exhibits no toxicity
same,effects on uninfected cells (viability),HeLa cells,only minor effects on uninfected cells
"CC(=O)N[C@@H](CS)C(=O)O [NAC, N-acetylcysteine, reference compound]",prevention of destruction of the cell lawn by HRV2 infection,HRV2 [2],not
same,action against respiratory RNA viruses,respiratory RNA viruses,no action at all
same,inhibition of influenza virus infection or replication,influenza virus [3],neither NAC nor PDTC inhibits influenza virus infection or replication
"S=C(S)N1CCCC1 [PDTC, pyrrolidine dithiocarbamate]",reduction of the virus titer (vt),[4]; supernatants 24 hours after infection,10^3
same,virus titer in supernatants,[4]; supernatants 48 hours after infection,significant reduction of the virus titer
same,morphology of infected cells,"[5]; 125 μM PDTC, 8 hours after the infection",cannot be distinguished from the morphology of non-infected (n. i.) cells
same,appearance of cytopathic effects,"[5]; HeLa cells, 100 TCID50 per cell, PDTC added during the infection",prevents the appearance of these cytopathic effects
same,viability of infected cells,HRV2 [1],significantly increased
same,time of PDTC treatment after infection at which the protective effect was reduced,[6],more than 8 hours
same,time of addition offering the best protection against virus induced loss of proliferation,[6],within the first six hours after infection
same,viral titers produced,HRV2 [7]; PDTC treatment started only 6 hours after infection,significantly reduced
same,reduction of the titer of the HRV2 produced,HRV2 [7]; addition of PDTC up to four hours after infection,10^3
same,splitting of eIF4GI,eIF4GI; 4 and 8 hours after infection,No splitting of eIF4GI can be detected
same,splitting of eIF4GI,eIF4GI; about 24 hours after infection,slight eIF4GI splitting can be detected
same,"expression of VP1, VP2 and VP3",[8]; about 24 hours after infection,Weak expression
same,"expression of capsid proteins VP1, VP2 and VP3",[8]; within the first 8 hours after infection,prevented expression of those capsid proteins
same,prevention of destruction of the cell lawn by HRV2 infection,HRV2 [2],can prevent that effect
same,inhibition at 1200 µM,"A/PR8/34; Influenza A virus, PR8, 96 h, PDTC 1200 μM, read-out: inhibition (TCID50 assay)",> 99.9%
same,reduction of TCID50,A/PR8/34; PDTC 300 μM,76.4%
same,inhibition at 1200 µM,"A/Vienna/47/96; Influenza A virus, 96 h, PDTC 1200 μM, read-out: inhibition (TCID50 assay)",> 99.9%
same,reduction of TCID50,A/Vienna/47/96; PDTC 300 μM,82.2%
same,EC50,"[9]; Influenza A virus, PR8, Vero, 96 h, read-out: PDTC concentration for 50% reduction of positive wells",50 to 100 µM
same,PDTC concentration for complete inhibition of cytopathic effects,"[9]; all viruses, vero cells",600 µM
same,weight of infected mice,influenza virus [10]; 7 days after the infection,gained weight
same,survival of infected mice,influenza virus [10]; from one hour after lethal inoculation,all the mice treated with PDTC (squares) survived the virus infection
same,virus titer (vt) in the supernatant in comparison to untreated cells,[11],decreases
same,protection against the cytopathic effect of the virus,"FMV virus O-Manisa [12]; 600 μM PDTC, IB-RS-2 cells, 0.1 TCID50 per cell, 24 hours",100%
same,EC50,"FMV virus O-Manisa [12]; Foot-and-mouth disease virus, 24 h, read-out: concentration range for 50% reduction of infected wells",75 to 150 µM
same,reduction of virus titer compared with the control sample,FMV virus O-Manisa [13],more than 2 log steps
same,reduction of virus proliferation in suspended cells,FSME virus (Neudörfel),no indication of reduction of virus proliferation
same,changes of the mouse weights after the beginning of the infection,EMC virus; started with infection or 24 hours after,no difference in treated and untreated mice
same,average time to death for the infected mice,"EMC virus; every group: PBS, PDTC, PDTC 24 hpi",5.5 days
same,toxic effects on cell monolayer (microscopic examination),BHK-21 cells,no indications of toxic effects
same,inhibition of influenza virus infection or replication,influenza virus [3],neither NAC nor PDTC inhibits influenza virus infection or replication
same,toxicity of the concentration used to inhibit the viral infections,HeLa cells,exhibits no toxicity
same,effects on uninfected cells (viability),HeLa cells,only minor effects on uninfected cells
Cc1c(C)c2c(c(C)c1O)CCC(C)(C(=O)O)O2 (centres unmarked) [Trolox],protective effect during viral proliferation,HRV2 [1],none of these antioxidants had any protective effect
O=C1O[C@H]([C@@H](O)CO)C(O)=C1O [Vitamin C],protective effect during viral proliferation,HRV2 [1],none of these antioxidants had any protective effect
same,action against respiratory RNA viruses,respiratory RNA viruses,no action at all
CCN(CC)C(=S)S [dithiocarb],cure or improvement of AIDS patients,[14],does not cause cure or improvement of the patients
OCCS [β-mercaptoethanol],protective effect during viral proliferation,HRV2 [1],none of these antioxidants had any protective effect
same,action against respiratory RNA viruses,respiratory RNA viruses,no action at all
Vitamin E,action against respiratory RNA viruses,respiratory RNA viruses,no action at all
